# Measured values published in publication PMC8948939 (Pharmaceutics, 2022).
# Values joined by “and” are separate entries in the source; they are usually repeats but may differ in a detail not shown here. Equal entries are not always repeated. Where two headings read alike, the source gives them in different places.
# Experiments:
# CYP2C9 [1] = molecular target: T1, CYP2C9 (Homo sapiens, UniProt P11712); experiment: Type of reversible inhibition and Ki on CYP2C9 (diclofenac 4-hydroxylation) in HLM; type: in vitro ADME; design: tissue Corning Inc; host or cells: pooled human liver microsomes (150 donors)
# T1 sequence (P11712 whole entry): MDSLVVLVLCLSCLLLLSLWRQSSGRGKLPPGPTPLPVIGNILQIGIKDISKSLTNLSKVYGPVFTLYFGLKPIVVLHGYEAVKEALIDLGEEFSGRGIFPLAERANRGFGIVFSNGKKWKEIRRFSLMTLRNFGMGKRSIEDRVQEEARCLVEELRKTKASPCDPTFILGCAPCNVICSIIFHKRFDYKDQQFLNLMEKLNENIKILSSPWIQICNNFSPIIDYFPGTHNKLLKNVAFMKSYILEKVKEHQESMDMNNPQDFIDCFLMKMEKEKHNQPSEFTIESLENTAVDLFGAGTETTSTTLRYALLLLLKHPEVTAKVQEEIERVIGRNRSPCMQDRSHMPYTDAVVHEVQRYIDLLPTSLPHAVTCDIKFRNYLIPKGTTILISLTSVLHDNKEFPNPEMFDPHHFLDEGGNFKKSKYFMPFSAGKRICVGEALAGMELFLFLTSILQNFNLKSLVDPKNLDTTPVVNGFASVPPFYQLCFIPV
# Protocol: (§1) Reaction velocities were investigated in function of the substrate ([S]) and inhibitor ([I]) concentration to determine KM, Vmax and Ki of the reaction. The obtained data were used to fit the three main models of reversible inhibition, i.e., competitive (Equation (10)), noncompetitive (Equation (11)) and uncompetitive (Equation (12)) using the “nls” function in R. The type of inhibition was determined according to the best model fit assessed with Akaike’s information criteria (AIC). […] (10) V=Vmax/1+KM/S1+I/Ki (11) V=Vmax/1+KM/S1+I/Ki (12) V=Vmax/1+KM/S+I/Ki […]
# (§2) Supplementary Section S1. Marker reactions for CYP2C19, CYP2C9 and CYP3A4 […]
# (§3) for CYP3A4 [1,2] were used to determine (i) intersystem extrapolation factors (ISEF), (ii) […]
# (§4) (i) Experiments for the determination of Michaelis-Menten kinetics in HLM were performed at protein concentrations of 0.02, 0.04 and 0.05 mg/mL for the marker reactions of CYP2C19, CYP2C9 and CYP3A4 (n = 3 each), respectively. Two samples were taken from each incubation after 15 and 25 min for investigations on CYP2C19, after 5 and 10 min for CYP2C9 and after 7 and 12 min for CYP3A4, respectively. […]
# (§5) were applied as substrate concentrations. […]
# (§6) Each probe substrate was incubated in the presence of each inhibitor. […]
# (§7) were performed at concentrations of 0.2, 0.08 and 0.05 mg/mL HLM for CYP2C19, CYP2C9 and CYP3A4, respectively. IC50 and IC50 shift assays were performed at substrate […]
# (§8) Reaction times were identical to those described
# [2] = test system: human liver microsomes (HLM); experiment: Metabolic stability of voriconazole N-oxide and hydroxyvoriconazole in HLM; type: in vitro ADME; details: HLM 0.2 mg/mL
# Protocol: An incubation without HLM served as a control (n = 1).
# CYP2C19 [3] = molecular target: T2, CYP2C19 (Homo sapiens, UniProt P33261); experiment: IC50 and IC50 shift on CYP2C19 marker reaction (S-mephenytoin 4-hydroxylation) in HLM; type: in vitro ADME; design: tissue Corning Inc; host or cells: pooled human liver microsomes (150 donors)
# T2 sequence (P33261 whole entry): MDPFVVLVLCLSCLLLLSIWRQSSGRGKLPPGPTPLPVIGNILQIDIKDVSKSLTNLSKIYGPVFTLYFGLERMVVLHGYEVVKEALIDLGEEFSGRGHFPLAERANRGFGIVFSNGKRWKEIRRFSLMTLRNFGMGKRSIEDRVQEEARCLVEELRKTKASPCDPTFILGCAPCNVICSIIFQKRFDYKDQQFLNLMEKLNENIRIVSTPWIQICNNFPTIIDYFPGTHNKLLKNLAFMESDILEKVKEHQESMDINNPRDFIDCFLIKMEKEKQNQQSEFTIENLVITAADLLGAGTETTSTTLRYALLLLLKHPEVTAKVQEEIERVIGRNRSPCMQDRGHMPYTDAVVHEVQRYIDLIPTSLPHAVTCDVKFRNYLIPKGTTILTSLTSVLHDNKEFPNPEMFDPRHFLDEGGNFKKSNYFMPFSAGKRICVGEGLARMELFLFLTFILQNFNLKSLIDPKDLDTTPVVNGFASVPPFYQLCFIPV
# Protocol: (§9) Remaining activity (A, %) was calculated as the ratio of reaction velocities in the inhibited and non-inhibited incubations. IC50 and the steepness of the inhibition curve (H) were estimated by fitting the four-parameter inhibition model to the experimental data (Equation (9)). Maximum (Amax) and baseline activity (A0) were fixed to 100 and 0, respectively. […] (9) A,%=A0+Amax−A0/1+logCInhib/logIC50^H=100/1+logCInhib/logIC50^H […]
# as §2, §3, §6, §7, §8
# CYP2C9 [4] = molecular target: T1, CYP2C9; design: tissue Corning Inc; host or cells: pooled human liver microsomes (150 donors); details: ref Giri et al. 84; cited from earlier work
# CYP2C9 [5] = molecular target: T1, CYP2C9; experiment: IC50 and IC50 shift on CYP2C9 marker reaction (diclofenac 4-hydroxylation) in HLM; type: in vitro ADME; design: tissue Corning Inc; host or cells: pooled human liver microsomes (150 donors)
# Protocol: as §9
# Supplementary Section S1. […]
# Two samples were taken
# from each incubation after 15 and 25 min for investigations on CYP2C19, after 5 and
# 10 min for CYP2C9 and after 7 and 12 min for CYP3A4, respectively. […]
# CYP2C9 and CYP3A4, respectively. IC50 and IC50 shift assays were performed at substrate
# as §8
# CYP3A4 [6] = molecular target: T3, CYP3A4 (Homo sapiens, UniProt P08684); experiment: IC50 and IC50 shift on CYP3A4 marker reaction (midazolam 1-hydroxylation) in HLM; type: in vitro ADME; design: tissue Corning Inc; host or cells: pooled human liver microsomes (150 donors); details: for IC50 shift: human, human liver microsomes, pH 7.5, probe midazolam 1-hydroxylation (4.60 µM midazolam)
# T3 sequence (P08684 2-503 limits assumed): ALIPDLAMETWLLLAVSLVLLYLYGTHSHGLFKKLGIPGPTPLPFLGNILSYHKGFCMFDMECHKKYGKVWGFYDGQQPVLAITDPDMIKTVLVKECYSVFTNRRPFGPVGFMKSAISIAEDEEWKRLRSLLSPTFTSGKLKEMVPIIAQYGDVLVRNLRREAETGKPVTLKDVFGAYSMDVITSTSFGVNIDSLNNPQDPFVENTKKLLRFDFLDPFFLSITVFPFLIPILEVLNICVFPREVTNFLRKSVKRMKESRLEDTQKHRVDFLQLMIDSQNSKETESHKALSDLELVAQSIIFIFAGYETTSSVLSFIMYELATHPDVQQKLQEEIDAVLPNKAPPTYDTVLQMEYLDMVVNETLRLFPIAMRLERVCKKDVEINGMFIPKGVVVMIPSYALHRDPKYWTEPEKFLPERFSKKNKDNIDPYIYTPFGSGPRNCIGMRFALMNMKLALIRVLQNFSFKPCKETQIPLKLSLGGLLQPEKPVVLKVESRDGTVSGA
# Protocol: as §9, §2, §3
# Two samples were taken […]
# from each incubation after 15 and 25 min for investigations on CYP2C19, after 5 and 10 min for CYP2C9 and after 7 and 12 min for CYP3A4, respectively. […]
# CYP2C9 and CYP3A4, respectively. IC50 and IC50 shift assays were performed at substrate […]
# as §8
# CYP3A4 [7] = details: cited from earlier work
# CYP3A4 [8] = molecular target: T3, CYP3A4; experiment: Type of reversible inhibition and Ki on CYP3A4 (midazolam 1-hydroxylation) in HLM; type: in vitro ADME; design: tissue Corning Inc; host or cells: pooled human liver microsomes (150 donors)
# Protocol: as §1, §2, §3, §4, §5, §6, §7, §8
# CYP2C19 [9] = molecular target: T2, CYP2C19; experiment: Type of reversible inhibition and Ki on CYP2C19 (S-mephenytoin 4-hydroxylation) in HLM; type: in vitro ADME; design: tissue Corning Inc; host or cells: pooled human liver microsomes (150 donors)
# Protocol: as §1, §2, §3, §4, §5, §6, §7, §8
# CYP2C19 [10] = molecular target: T2, CYP2C19; design: tissue Corning Inc; host or cells: pooled human liver microsomes (150 donors); details: ref Hohmann et al. 42; cited from earlier work
# [11] = 30 min pre-incubation in the absence of NADPH
# [12] = 30 min pre-incubation in the absence of NADPH, read-out: IC50 NADPH (−) (95% Confidence Interval)
# [13] = 30 min pre-incubation in the presence of NADPH
# [14] = 30 min pre-incubation in the presence of NADPH, read-out: IC50 NADPH (+) (95% Confidence Interval)
compound,measurement,setting,value
"C[C@@H](c1nc[n+]([O-])cc1F)[C@](O)(Cn1cncn1)c1ccc(F)cc1F [NO, voriconazole N-oxide]",Type of Reversible Inhibition,"CYP2C9 [1]; CYP2C9, best model fit by AIC",competitive
same,"inhibitory effect on CYP2C9 relative to VRC (fold, from Ki)",CYP2C9 [1]; compared to VRC,2.1 fold
same,Ki,CYP2C9 [1]; read-out: Ki (95% CI),5.47 µM
same,depletion over time when incubated directly with HLM,"[2]; 5-60 min, 0.137 and 1.10 µM",no depletion
same,% compared to a control incubation without HLM after 60 min,"[2]; high concentration (1.10 µM), single replicates",96.9% and 109%
same,IC50 Shift NADPH (−),CYP2C19 [3]; [11],0.641
same,IC50,CYP2C19 [3]; [12],> 34.2 µM
same,IC50 Shift NADPH (+),CYP2C19 [3]; [13],0.900
same,IC50,CYP2C19 [3]; [14],> 34.2 µM
same,time dependence of inhibition,CYP2C19 [3]; IC50 shift assay,Time-independent inhibition
same,IC50,"CYP2C19 [3]; without pre-incubation, […] S-mephenytoin, HLM, NO and OH–VRC estimates exceed applied concentrations (max 34.2 µM), read-out: IC50 (95% Confidence Interval)",> 34.2 µM
same,IC50,CYP2C9 [4],11.2 µM
same,IC50,CYP2C9 [5]; [12],10.1 µM
same,IC50,CYP2C9 [5]; [14],14.9 µM
same,time dependence of inhibition,CYP2C9 [5]; IC50 shift assay,Time-independent inhibition
same,IC50 shift,"CYP2C9 [5]; human, human liver microsomes, pH 7.5, probe diclofenac 4-hydroxylation (4.73 µM diclofenac), 30 min pre-incubation in the absence of NADPH",1.34
same,IC50 shift at 30 min,"CYP2C9 [5]; human, human liver microsomes, pH 7.5, probe diclofenac (4-hydroxylation), 4.73 µM, 30 min pre-incubation in the presence of NADPH",0.899
same,IC50,"CYP2C9 [5]; without pre-incubation, 4.73 µM diclofenac, HLM, read-out: IC50 (95% Confidence Interval)",13.4 µM
same,IC50,CYP3A4 [6]; [12],6.96 µM
same,IC50 Shift NADPH (+),CYP3A4 [6]; [13],1.54
same,IC50,CYP3A4 [6]; [14],2.91 µM
same,time dependence of inhibition,CYP3A4 [6]; IC50 shift assay,Time-independent inhibition
same,IC50 shift,CYP3A4 [6]; [11],0.644
same,IC50 shift,CYP3A4 [6]; [13],> 1.5
same,IC50,"CYP3A4 [6]; without pre-incubation, 4.60 µM midazolam, HLM, read-out: IC50 (95% Confidence Interval)",4.48 µM
same,IC50,CYP3A4 [7]; ref Giri et al. 84,8.7 µM
same,IC50,CYP3A4 [7]; ref Hohmann et al. 42,146 µM
same,Type of Reversible Inhibition,"CYP3A4 [8]; CYP3A4, best model fit by AIC",noncompetitive
same,Ki,"CYP3A4 [8]; CYP3A4, midazolam 1-hydroxylation, HLM, read-out: Ki (95% CI)",5.24 µM
same,"inhibitory effect on CYP3A4 relative to VRC (fold, from Ki)",CYP3A4 [8]; compared to VRC,1.9 fold
same,Type of Reversible Inhibition,"CYP2C19 [9]; CYP2C19, best model fit by AIC",noncompetitive
same,"inhibitory effect on CYP2C19 relative to VRC (fold lower, from Ki)",CYP2C19 [9]; compared to VRC,31 fold
same,Ki,CYP2C19 [9]; read-out: Ki (95% CI),58.6 µM
same,IC50,CYP2C19 [10],40.2 µM
